# In US7737183B2, “β-amyloid and neurofibrillary tangle imaging agents” (The Regents of the University of California, priority 2006, dated 2010):
# Values joined by “and” are separate entries in the source; they are usually repeats but may differ in a detail not shown here. Equal values may be shown once.
# Experiments:
# β-amyloid plaques [1] = target: T1, β-amyloid plaques (Homo sapiens, UniProt P05067); assay: In vitro autoradiographic binding of 18F-FPCUR to transgenic mice brain slices; parameters: from tissue; host or cells: sagittal brain sections of Tg 2576 and 3×Tg transgenic mice, 1 to 24 months; species or system transgenic mice (Tg 2576 and 3×Tg)
# T1 sequence (P05067 672-713 limits assumed): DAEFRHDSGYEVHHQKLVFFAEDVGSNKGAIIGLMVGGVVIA
# Procedure: Preliminary binding to rat brain slices of ^18F-fluoropropyl curcumin was carried out at 37° C. in Tris buffer, 50 mM, pH 7.4 for one hour, and further testing of ^18F-FPCUR for binding to β-amyloid plaques was carried out transgenic mice brains. […] Brain slices were pre-incubated for 10 mins in incubation buffer, 0.1 M Tris, 0.1 M NaCl, 0.5% Tween and 0.1% BSA, pH 7.4. Incubation was carried out in 0.1 M Tris, 0.1 M NaCl, 0.5% Tween and 0.1% BSA, pH 7.4 with ^18F-FPCUR (3 μCi/cc) at 37° C. for 1 hr. […] Slices were washed with cold buffer, 2×2 min, rinsed with cold water and air dried. Autoradiograms were obtained of various slices and binding of ^18F-FPCUR was quantitated using Optiquant Image analysis program. […] For evaluating the amount of plaque present in the brain slices, adjacent brain slices were also stained using reported immunostaining methods.
# [2] = system: senile plaques and neurofibrillary tangles; assay: In vitro autoradiographic binding to triple transgenic mouse sagittal brain slices; parameters: species or system triple transgenic mice; details: for selectivity of binding to the plaques: triple transgenic mice brain slices
# Procedure: (§1) In vitro studies of ^18F-FBM were carried out on coronal and horizontal mice brain slices (both wild-type and Tg 2576), which were obtained on a Leica 1850 cryotome. Mice brain-region slices (hippocampus and frontal cortex of 24-month old wild-type and Tg 2576; 10 μm thick) were preincubated in buffer (0.9% saline) for 10 minutes. Subsequently, the mice brain slices were incubated with ^18F-FBM (6.8 μCi/cc) in 0.9% saline, pH 7.4 at 37° C. for 1 hr. For nonspecific binding, brain slices were treated with 10 μM FDDNP. Slices were washed with cold millipore water, 70% alcohol, 90%, alcohol, 70% alcohol, and water for 2, 1, 1, 1, and 1 min, respectively. The slices were air dried then exposed overnight onto a phosphor screen and read by the Phosphor Autoradiographic Imaging System/Cyclone Storage Phosphor System (Packard Instruments Co). Regions of interest were drawn on various regions of the slices and the extent of binding of ^18F-FBM was computed as DLU/mm^2 using the OptiQuant acquisition and analysis program (Packard Instruments Co).
# (§2) Similar experiments were carried out in adjacent slices using ^18F-FDDNP (7.8 μCi/cc) for comparison. For evaluating the amount of plaque present in the brain slices, adjacent brain slices were also stained for the peptide fragment Aβ17-24 which is representative of the amount of Aβ40 and Aβ42 plaque aggregates using reported 4G8 immunostaining methods of UCI-Institute for Brain Aging and Dementia (Head E, Moffat K, Das P, Sarsoza E, Poon W W, Landsberg G, Cotman C W, Muphy M P. (2005). Beta-amyloid deposition and tau phosphorylation in clinically characterized aged cats. Neurobiology of Aging 26(5): 749-763). Beta-amyloid deposition and tau phosphorylation in clinically characterized aged cats. Neurobiology of Aging 26(5): 749-763).
# Sagittal brain slices of 18 month old triple transgenic mice were then studied. These mice have been known to have an extensive amount of senile plaques and neurofibrillary tangles accumulation in several regions of the brain. These regions include the hippocampus, cortex, thalamus, brain stem and other regions. Binding of ^18F-FBM and ^18F-FDDNP to 10 micron thick slices of triple transgenic mice brains is depicted in FIG. 3 along with antibody staining for plaques. More specifically, FIG. 3A depicts antibody staining in the hippocampus and frontal cortex regions, which was also confirmed by thioflavin S staining in an adjacent slice (shown in inset in FIG. 3A). […] Regions of the hippocampus and the frontal cortex (arrows pointing) that contain the plaques are clearly evident.
# The binding of ^18F-FBM in the various plaque containing regions was also quantitatively evaluated as a ratio plot shown in FIGS. 4A and 4B. Cerebellum and striatum were used as reference regions. […] The ratio between the frontal cortex regions showing plaques was between 6 and 7 while the hippocampus was between 3.5 and 4.5 as can be taken from FIG. 4A. […] On the other hand, in the case of ^18F-FDDNP, the binding ratios with respect to cerebellum were 1.5 and 2.0 as can be taken from FIG. 4B.
# β-amyloid plaques [3] = target: T1, β-amyloid plaques; assay: In vitro autoradiographic binding to Tg2576 mouse hippocampal brain slices; parameters: representative of the amount of Aβ40 and Aβ42 plaque aggregates; from tissue; host or cells: hippocampal brain slices of 24-month old Tg2576 transgenic mice; species or system Tg2576 transgenic mice; details: for ratio of binding in plaque to non-plaque areas within the same slice: 10 μm hippocampal slice of 24-month old Tg2576 mouse
# Procedure: as §1, §2
# Hippocampal slice of 24-month old transgenic mouse (Tg2576, transgenic mice expressing mutant APP) stained for Aβ17-24 using 4G8 immunostaining confirmed presence of β-amyloid plaques found in Alzheimer's disease (FIGS. 1A and 2A depicting 10 μm thick horizontal hippocampal slice of 24-month old transgenic mouse (Tg2576) stained for Aβ17-24 using 4G8 immunostaining. Arrow indicates amyloid plaques.). Adjacent hippocampal slices radiolabeled with ^18F-FBM and ^18F-FDDNP indicated binding to amyloid plaques and corresponded to the 4G8 stain (FIGS. 1B and 2B depicting adjacent hippocampal slice shown in (A) but radiolabeled with high-specific activity ^18F-FBM or ^18F-FDDNP. Arrow indicates binding of ^18F-FBM or ^18F-FDDNP to the amyloid plaques and corresponds to the 4G8 stain.). The specific binding to amyloid plaques was reduced in the presence of 10 μM FDDNP (FIGS. 1C and 2C; FIG. 1C depicts adjacent hippocampal slice shown in (B) radiolabeled with high-specific activity ^18F-FBM in the presence of 10 μM FDDNP. Specific binding to regions containing plaques is reduced; and FIG. 2C depicts adjacent hippocampal slice in cold FDDNP. Specific binding to plaque regions is reduced). Alcohol was used for washing the medium to remove nonspecific binding. The ratio of binding in plaque to non-plaque areas within the same slice for ^18F-FBM was 2.1 while that for ^18F-FDDNP was 1.4; and in the presence of 10 μM FDDNP, these ratios went down to 1.6 and 1.2, respectively.
# [4] = Relative lipophilicity from reverse-phase HPLC elution order; format: physicochemical; details: elutes first
# Procedure: For the radiosynthesis step, high specific activity ^18F-fluoride (approximately 100 milliCurie) was produced in the MC-17 cyclotron. Fluorine-18 radioactivity count was measured in a Capintec dose calibrator, while low-level counts were measured out in a well-counter (Cobra Quantum, Packard Instruments Co). Direct radiolabeling of the tosylate precursor was done by using ^18F-fluoride in a solution of 19 mg of Kryptofix 2.2.2 and 0.75 mg potassium carbonate in acetonitrile. The mixture was heated at 85° C. for 20 minutes. After cooling, the mixture was transferred onto a neutral alumina Sep-Pak Cartridge to remove unreacted ^18F-fluoride. Chromatographic separations were preformed on semi-preparative reverse-phase C18 column (length=[…], ID=4.6 mm) using the Gilson high performance liquid chromatography (HPLC) systems. Decay-corrected radiochemical yield was approx. 20%. Retention time of ^18F-FBM was 14 mins compared to 15.7 mins for ^18F-FDDNP (for separation protocol, see e.g., Agdeppa E D et al. (2001) Binding Characteristics of Radiofluorinated 6-Dialkylamino-2-Naphthylethylidene Derivatives as Positron Emission Tomography Imaging Probes for Beta-Amyloid Plaques in Alzheimer's Disease. The Journal of Neuroscience 21, 1-5). ^18F-FBM was collected and prepared for in vitro binding studies. […]
smiles,measurement,setting,value
COc1cc(/C=C/C(=O)CC(=O)/C=C/c2ccc(O)c(OC)c2)ccc1O [Curcumin],displacement of 18F-FPCUR binding by competitor,β-amyloid plaques [1]; 10 μM competitor,displaced
CC(=C(C#N)C#N)c1ccc2cc(N(C)CCF)ccc2c1 [FDDNP],effect of competitor on selective binding of 18F-FBM to plaque regions,"[2]; 1 μM FDDNP, FIG. 3E",significantly reduced
"CC(=C(C#N)C#N)c1ccc2cc(N(C)CC[18F])ccc2c1 [18F-FDDNP, 2-(1-{6-[(2-[^18F]fluoroethyl)(methyl)amino]-2-naphtyl}ethylidene)malonitrile]",binding ratios with respect to cerebellum,"[2]; 18 month old triple transgenic mice, FIG. 4B",1.5 and 2.0
same,selectivity of binding to the plaques,[2],less selective
same,binding in the cerebellum (no significant amount of plaques),"[2]; triple transgenic mice, FIG. 3D",significant amount of binding
same,ratio of binding in plaque to non-plaque areas within the same slice,β-amyloid plaques [3]; in the presence of 10 μM FDDNP,1.2
same,ratio of binding in plaque to non-plaque areas within the same slice,β-amyloid plaques [3]; no competitor,1.4
"CC(/C=C/c1ccc(N(C)CC[18F])cc1)=C(C#N)C#N [18F-FBM, 4′-[(2-[^18F]fluoroethyl)(methyl)amino]-4-phenyl-3-buten-2-malonitrile]",selectivity of binding to the plaques,[2],selective binding
same,lipophilicity relative to 18F-FDDNP,[4],less lipophilic
same,ratio of binding in plaque to non-plaque areas within the same slice,β-amyloid plaques [3]; in the presence of 10 μM FDDNP,1.6
same,ratio of binding in plaque to non-plaque areas within the same slice,β-amyloid plaques [3]; no competitor,2.1
same,specific binding to amyloid plaque regions compared to 18F-FDDNP,β-amyloid plaques [3]; Tg2576 hippocampal slices,higher specific binding
CC(C=Cc1ccc(N(C)CCF)cc1)=C(C#N)C#N [FBM],effect of competitor on binding of 18F-FDDNP in the hippocampus,"[2]; FBM (1 mM), FIG. 3F",reduced
"COc1cc(/C=C/C(=O)CC(=O)/C=C/c2ccc(OCCC[18F])c(OC)c2)ccc1O [18F-FPCUR, ^18F-fluoropropylcurcumin]",binding in the cerebellum (CB),β-amyloid plaques [1]; FIG. 7,little binding
same,binding in older transgenic mice,β-amyloid plaques [1]; older transgenic mice,Increased binding
